Data taken from patent publication US20220362174A1, “Use of R-enantiomer Beta2-agonists for prevent and treatment of pulmonary inflammation and inflammatory remodeling for reduced adverse effects” (priority 2019, published 2022).
“Also recorded” adds a separate entry of the source.

Key:
[1] = tested on: OVA-sensitized/OVA-challenged mice; assay: Whole blood analysis and eosinophils counts in BAL fluid; assay type: in vivo; details: OVA asthma mice after repeated inhalation
Method: (§1) OVA sensitized/challenged asthma model Mice were sensitized and challenged with ovalbumin (OVA) or normal saline. Briefly, mice were sensitized by intraperitoneal (i.p.) injection of 0.2 mL of 2% aluminum hydroxide (ALUM) gel containing 10 μg of OVA antigen on days 0 and 14. On days 21, 22 and 23, the mice were challenged with 1% OVA in saline (0.01 g/mL) for 20 min via. a nebulizer (PART Turbo boy). On day 26, a 20 min nebulized OVA challenge with 5% OVA in saline (0.05 g/mL) was conducted. The control group received 0.2 mL of saline with 2% ALUM administered intraperitoneally on days 0 and 14 before receiving 20 min nebulized normal saline without OVA on days 21, 22, 23 and 26.
After Methacholine challenge, mice were anesthetized, blood was collected for hematology analysis. Part of the collected blood was transferred to a heparinized Eppendorf tube, gently mixed and centrifuged under 845×g at 4° C. for 10 min to isolate plasma specimen for further analysis. Broncho alveolar lavage (BAL) was performed on the right lung using 0.3 mL of phosphate buffered saline (PBS) for four times. The saline was instilled into the lungs and allowed to equilibrate for 30 s before recovery, after centrifugation supernatants were stored at −80° C. for further cytokines analysis while cell pellet was suspended in 0.5 ml PBS and the eosinophils counts were performed using Wright's stain. Then all the organs (liver, right lung lobe, spleen, kidneys, heart, brain) were excised surgically and washed totally with ice-cold PBS to clear the blood and then blotted dry with filter paper. These tissue specimens were then accurately weighted and stored at −80° C. for detecting the drug distribution by LC-MS/MS. White blood cell (WBC) counts and differential WBC counts were analyzed using a ProCyte Dx Hematology Analyzer (IDEXX Laboratories) in 4 h after blood collection.

p38 MAPK = assay: Western blot of lung tissue: p38 MAPK phosphorylation; assay type: in vivo, mice; details: vs OVA group
Method: as §1
Total protein from lung tissue was extracted according to the guidelines of manufacturer (Beyotime, China) and the concentrations were determined by BCA assay (Pierce). Primary antibodies against p38 MAPK (CST #8690), p-p38 MAPK (Thr180/Tyr182, CST #4511), NF-κB p65 (GeneTex #GTX102090), p-NF-κB p65 (S536, CST #3033) and GAPDH (Affinity #AF7021) as a standard were purchased and used.

[2] = tested on: OVA-sensitized/OVA-challenged mice; assay: Airway responsiveness to methacholine by whole-body plethysmography (Penh) in OVA sensitized/challenged asthma model; assay type: in vivo
Method: as §1
In vivo airway responsiveness to methacholine (Mch) was assessed on day 28 in conscious, freely moving, spontaneously breathing mice by a whole-body plethysmography (Buxco Electronics Inc.). Mice were challenged with aerosolized saline or increasing concentrations of Mch (2, 10, 20 mg/mL) administered by an ultrasonic nebulizer for 2 min. Before Mch challenge, a 20 μL drug aerosol or saline was given to the mice because of the short-acting bronchodilating effect of terbutaline. The degree of bronchoconstriction was expressed as enhanced pause (Penh), a calculated dimensionless value that correlates with measurement of airway resistance, impedance, and intrapleural pressure. Penh values were recorded and averaged for 4 min after each nebulization challenge.

[3] = tested on: OVA-sensitized/OVA-challenged mice; assay: Lung histopathology (H&E, PAS, Masson) after R-, S-, rac-terbutaline; assay type: in vivo
Method: as §1
(§2) Left lung tissue was obtained for histopathology and fixed in 10% formalin for 24 h, followed by paraffin-embedded and then were sectioned at 4 μm for routine staining with hematoxylin and eosin (H&E, Solarbio, Beijing, China), or with periodic acid-Schiff (PAS, Solarbio, Beijing, China), or submitted to Masson's trichrome staining (Baso, Zhuhai, China). Images of the stained lung sections were obtained by an Axisplus image-capturing system (Zeiss, Germany) and then a minimum of 3 bronchi (luminal diameter, 150-500 μm) were analyzed per mice for various parameters using an image analyzing computer system (IPP) by pathologists blinded to grouping. Histological score, airway smooth muscle thickness, PAS score (goblet cells hyperplasia), and collagen deposition were evaluated by a semi-quantitative scoring method.

OVA induced asthma mice [4] = assay: Combination therapy of ipratropium with RS-, R- and S-salbutamol: airway resistance in response to methacholine; assay type: in vivo; details: for increase in airway resistance after treatment: response to methacholine, OVA + Saline 445%
Method: OVA sensitized/challenged asthma model Mice were sensitized and challenged with ovalbumin (OVA) or normal saline. […] On days 21, 22 and 23, the mice were challenged with 1% OVA in saline (0.01 g/mL) for 20 min via. a nebulizer (PART Turbo boy). […] In vivo airway responsiveness to methacholine (Mch) was assessed on day 28 in conscious, freely moving, spontaneously breathing mice by a whole-body plethysmography (Buxco Electronics Inc.). […] Before Mch challenge, a 20 μL drug aerosol or saline was given to the mice because of the short-acting bronchodilating effect of terbutaline. The degree of bronchoconstriction was expressed as enhanced pause (Penh), a calculated dimensionless value that correlates with measurement of airway resistance, impedance, and intrapleural pressure. […] Methods used were similar as mentioned above. Nebulized aerosol of saline, Methacholine 2 mg/ml (low dose) or 10 mg/ml (high dose) were given via inhalation to OVA induced asthma mice.

BALB/c mice [5] = assay: Lung function measurements 6 hours after LPS (Buxco); assay type: in vivo; details: 5.0 mg/kg
Method: Methods: Survival study: […] Treatment were given intraperitoneally for 3 consecutive days. […] The animals were monitored. Survival rate was then recorded every 12 h for 144 hours. The lung functions were measured with using Buxco system (Buxco Electronics, USA). After a brief acclimation to the chamber, the mice received an initial baseline challenge of saline. Measures were made at 6 hours after administration of LPS, including tidal volume and Penh which is an indication of airway resistance.

BALB/c mice [6] = assay: Survival study after LPS challenge (sepsis); assay type: in vivo; details: for Percent of death after LPS challenges, 12 h: Saline + LPS 0; for Percent of death after LPS challenges, 24 h: Saline + LPS 36.4; for Percent of death after LPS challenges, 36 h: Saline + LPS 72.7; for Percent of death after LPS challenges, 48 h / Percent of death after LPS challenges, 72 h / Percent of death after LPS challenges, 144 h: Saline + LPS 90.9
Method: Treatment were given intraperitoneally for 3 consecutive days. One hour after the 3rd day treatments, LPS (15 mg/kg) was administered intraperitoneally. The animals were monitored. Survival rate was then recorded every 12 h for 144 hours.

[7] = tested on: macrophages from the peritoneal fluid; assay: LPS-induced proliferation and polarization of macrophages from the peritoneal fluid (sepsis); assay type: in vivo; details: in comparison of sepsis condition
Source text: Macrophage activation and proliferation was considered to be the key step of initiation and development of sepsis. In one embodiment, LPS (PAMPs from bacteria) induced a proliferation and polarization of macrophages from the peritoneal fluid. […] These inhibitory effects can be blocked by using specific β2-recepter blocker.

[8] = tested on: LPS-induced macrophage RAW264.7 cells; assay: M1 macrophage cytokines (TNF-α, IL-1β, MCP-1) by ELISA; assay type: cell-based; details: LPS challenge
Method: (§3) Macrophages were treated without or with (R)/(S)-salbutamol for 1 h prior to LPS stimulation and subsequently incubated for 12 h. […] The fluorescence of the oxidized product (2′,7′-dichlorofluorescein, DCF) was assessed using an LSM710 Laser Scanning Confocal Microscope (Carl Zeiss, Jena, Germany). The concentration of NO in the culture supernatant was measured by assaying the concentrations of nitrite (a stable NO breakdown product) using the Griess assay (Beyotime, Shanghai, China), according to the manufacturer's instructions. The intracellular NO level was detected using the NO-sensitive fluorescence probe DAF-FM DA (Sigma, St. Louis, Mo., USA) (24). Cells were labeled with DAF-FM DA (10 μM) at 37° C. for 30 min and were gently washed three times with PBS. Fluorescence was detected using a LSM710 Laser Scanning Confocal Microscope (Scale bars, 100 μm) (Carl Zeiss, Jena, Germany).
To confirm that M1 polarization was predominant over M2 polarization after stimulation with LPS, the levels of typical M1 macrophage cytokines (i.e., TNF-α, IL-1β and MCP-1) were quantified using ELISA; these cytokines are mainly synthesized by macrophages and play an important role in inflammatory diseases (35,36). This invention disclosed that TNF-α […] from 2.62-fold to 0.75-fold of control levels following LPS stimulation (FIG. 8A). IL-1β is a hallmark of many chronic inflammatory diseases in humans and is reportedly associated with acute phase reactions (35,37). […] We conclude that LPS is likely to lead to M1 polarization but not M2 polarization.

OVA induced asthma mice [9] = assay: Combination therapy of ipratropium with R- and S-salbutamol: lung histopathology (Masson, PAS); assay type: in vivo
Method: as §2
Methods used were similar as mentioned above. Nebulized aerosol of saline, Methacholine 2 mg/ml (low dose) or 10 mg/ml (high dose) were given via inhalation to OVA induced asthma mice.

[10] = tested on: LPS-induced RAW264.7 cells; assay: M1/M2 macrophage polarization by flow cytometry; assay type: cell-based; details: pretreated prior to LPS 100 ng/mL; basal 24.7%, LPS 59.2%; (R)-salbutamol 10 μM
Method: as §3
Macrophages M1 (F4/80+/CD11c+/CD206−) and M2 (F4/80+/CD11c−/CD206+) polarization were analyzed using flow cytometry.

[11] = tested on: LPS-induced RAW264.7 cells; assay: Intracellular ROS (DCFH-DA); assay type: cell-based; details: LPS-induced cells
Method: as §3
LPS can promote cell apoptosis through mitochondrial dysfunction, and mitochondria are the major source of ROS.

[12] = tested on: LPS-induced RAW264.7 cells; assay: NO production (DAF-FM DA probe, Griess assay); assay type: cell-based; details: LPS-induced cells
Method: as §3
In addition, the concentration of NO in the culture supernatant was measured by assaying the concentrations of nitrite (a stable NO breakdown product) using the Griess assay. […] To investigate (R)-salbutamol role on the level of iNOS, the mRNA and protein levels of iNOS were determined.

CC(C)(C)NCC(O)c1cc(O)cc(O)c1 (racemic) [rac-terbutaline, terbutaline]
per cent of eosinophil counts in blood and BALF ([1]; listed as RS(rac)-terbutaline): significantly higher
per cent of eosinophil counts in blood and BALF ([1]; listed as racemic terbutaline): less but similar effects as S-terbutaline
p38 MAPK phosphorylation (ratio of phosphorylated to total p38 MAPK) (p38 MAPK): much less effects
airway bronchoconstriction/hyperactivity (Penh) in response to increased doses of Mch ([2]; Mch 2, 10, 20 mg/mL aerosol, rac-ter at double dose of R-ter): much less effect
baseline Penh value (baseline airway reactivity) ([2]; exposure to saline, after 7 days inhalation pretreatment, OVA group 0.80±0.12, Control group 0.55±0.08, rac-terbutaline at double molar amount): significantly reduce
PAS stain of lung tissues: inflammatory and histopathological changes, collagen deposition ([3]; Example 3, vs model): significant less beneficial effects
degree of inflammatory cell infiltration (H&E, histological score) ([3]; rac-terbutaline at double dose): ameliorated
PAS and Masson staining: subepithelial matrix glycoproteins, goblet cell hyperplasia, collagen deposition ([3]; vs OVA group): much less or not effective

CC(C)(C)NCC(O)c1ccc(O)c(CO)c1 (racemic) [RS salbutamol, salbutamol]
increase in airway resistance after treatment (OVA induced asthma mice [4]): 214%

C[C@@H]1C[C@H]2[C@@H]3CCC4=CC(=O)C=C[C@]4(C)[C@@]3(F)[C@@H](O)C[C@]2(C)[C@@]1(O)C(=O)CO [Dexamethasone, dexamethasone, reference compound]
Tidal volume (BALB/c mice [5]; LPS + saline 0.13 ± 0.03): 0.15 ± 0.04 mL
Penh (BALB/c mice [5]; LPS + saline 1.31 ± 0.40): 1.01 ± 0.46
Percent of death after LPS challenges, 12 h (BALB/c mice [6]; 5.0 mg/kg + LPS): 0%
Percent of death after LPS challenges, 24 h (BALB/c mice [6]; 5.0 mg/kg + LPS): 90.9%
Percent of death after LPS challenges, 36 h (BALB/c mice [6]; 5.0 mg/kg + LPS): 90.9%
Percent of death after LPS challenges, 48 h (BALB/c mice [6]; 5.0 mg/kg + LPS): 100%
Percent of death after LPS challenges, 72 h (BALB/c mice [6]; 5.0 mg/kg + LPS): 100%
Percent of death after LPS challenges, 144 h (BALB/c mice [6]; 5.0 mg/kg + LPS): 100%

OCc1cc([C@H](O)CNCCCCCCOCCCCc2ccccc2)ccc1O [(S)-salmeterol, reference compound]
polarized M1 macrophages or M2 macrophages [7]: further increased

CC(C)(C)NC[C@@H](O)c1ccc(O)c(CO)c1 [S-salbutamol, (S)-salbutamol, reference compound]
release and expression of cytokines in LPS induced M1 macrophages (in words) [8]: had the opposite effects
release and expression of cytokines in LPS induced M1 macrophages (in words) ([8]; listed as S-albuterol): increased the release of cytokines
PAS staining: goblet cell hyperplasia, mucus over secretion, airway edema (OVA induced asthma mice [9]; vs OVA model): further worsen the inflammatory condition
Masson staining: collagen deposition, wall thickness of bronchiole and vascular vessels (OVA induced asthma mice [9]; vs ova (model) group): further worsens the inflammatory conditions and further increased the wall thickness
prevalence of M1 macrophages (F4/80+/CD11c+/CD206−) [10]: facilitated macrophage polarization
production/levels of ROS (in words) [11]: increased
increase in airway resistant in response to methacholine (in words) (OVA induced asthma mice [4]): much greater; also recorded: further enhance the airway response to methacholine
increase in airway resistance after treatment (OVA induced asthma mice [4]): 486%
Percent of death after LPS challenges, 12 h (BALB/c mice [6]; 0.5 mg/kg + LPS): 0%
Percent of death after LPS challenges, 24 h (BALB/c mice [6]; 0.5 mg/kg + LPS): 36.4%
Percent of death after LPS challenges, 36 h (BALB/c mice [6]; 0.5 mg/kg + LPS): 90.9%
Percent of death after LPS challenges, 48 h (BALB/c mice [6]; 0.5 mg/kg + LPS): 90.9%
Percent of death after LPS challenges, 72 h (BALB/c mice [6]; 0.5 mg/kg + LPS): 90.9%
Percent of death after LPS challenges, 144 h (BALB/c mice [6]; 0.5 mg/kg + LPS): 90.9%
rate of mortality/death after LPS challenge (in words) (BALB/c mice [6]; in comparison of LPS challenged group without pretreatment (mortality 90.9%)): same rate of death at 48 hours; also recorded: higher rate of death at 36 h
production/levels of NO (in words) [12]: increased
